Source: PMC3813382 (The Journal of General Physiology, 2013)
Positions count from the first letter of the chain named.

Assays:
F258A Slo2.1 channels = target: T1, F258A Slo2.1 channels (Homo sapiens, UniProt Q6UVM3, F258A); assay: Activation of ISlo2.1 by NFA, two-electrode voltage clamp in oocytes; type: cell-based
T1 sequence (Q6UVM3 1-1135 F258A): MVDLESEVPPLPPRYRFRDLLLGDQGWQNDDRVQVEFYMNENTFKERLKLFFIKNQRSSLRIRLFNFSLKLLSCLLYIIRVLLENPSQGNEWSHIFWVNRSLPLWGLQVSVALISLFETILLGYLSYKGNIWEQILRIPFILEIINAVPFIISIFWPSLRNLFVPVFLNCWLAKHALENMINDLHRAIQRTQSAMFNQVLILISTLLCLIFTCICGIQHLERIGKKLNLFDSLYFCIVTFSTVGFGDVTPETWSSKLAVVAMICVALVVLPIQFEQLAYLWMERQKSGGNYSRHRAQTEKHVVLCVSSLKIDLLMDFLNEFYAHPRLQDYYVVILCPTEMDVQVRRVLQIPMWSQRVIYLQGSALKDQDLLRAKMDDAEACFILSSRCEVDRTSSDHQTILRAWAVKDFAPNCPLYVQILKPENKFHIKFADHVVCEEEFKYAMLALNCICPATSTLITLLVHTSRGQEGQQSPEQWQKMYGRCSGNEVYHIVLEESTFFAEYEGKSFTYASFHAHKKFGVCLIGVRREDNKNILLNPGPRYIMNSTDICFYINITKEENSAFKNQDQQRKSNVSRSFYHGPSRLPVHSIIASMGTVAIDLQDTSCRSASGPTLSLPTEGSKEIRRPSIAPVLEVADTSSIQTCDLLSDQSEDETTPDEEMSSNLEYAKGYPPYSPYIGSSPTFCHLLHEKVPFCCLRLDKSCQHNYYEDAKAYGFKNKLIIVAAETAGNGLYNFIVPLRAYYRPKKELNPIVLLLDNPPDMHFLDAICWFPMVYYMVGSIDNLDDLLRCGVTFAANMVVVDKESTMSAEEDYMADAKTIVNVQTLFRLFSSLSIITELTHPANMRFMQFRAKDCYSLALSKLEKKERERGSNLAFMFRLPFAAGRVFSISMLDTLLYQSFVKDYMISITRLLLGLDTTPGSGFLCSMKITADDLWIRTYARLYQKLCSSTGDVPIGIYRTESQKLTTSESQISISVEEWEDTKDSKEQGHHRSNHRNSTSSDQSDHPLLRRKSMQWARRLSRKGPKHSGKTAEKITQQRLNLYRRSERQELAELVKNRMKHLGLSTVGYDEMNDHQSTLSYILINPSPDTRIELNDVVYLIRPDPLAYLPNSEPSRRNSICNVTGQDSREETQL

M262A Slo2.1 channels = target: T2, M262A Slo2.1 channels (Homo sapiens, UniProt Q6UVM3, M262A); assay: as above; type: cell-based
T2 sequence (Q6UVM3 1-1135 M262A): T1 sequence (Q6UVM3 1-1135 F258A) with A258F, M262A

EC50 (F258A Slo2.1 channels): 400 ± 50 µM
Hill coefficient nH of NFA activation (F258A Slo2.1 channels; F258A): 1.2 ± 0.08
EC50 (M262A Slo2.1 channels): 660 ± 130 µM
Hill coefficient nH of NFA activation (M262A Slo2.1 channels; M262A): 1.4 ± 0.06
SMILES: O=C(O)c1cccnc1Nc1cccc(C(F)(F)F)c1 [NFA, niflumic acid]
